For one test, the target named is T1, human PAC1 receptor (Homo sapiens, UniProt P41586).
T1 construct: expressed in transfected cells; host or cells: CHO cells (G418 selection)
T1 sequence (P41586 21-468): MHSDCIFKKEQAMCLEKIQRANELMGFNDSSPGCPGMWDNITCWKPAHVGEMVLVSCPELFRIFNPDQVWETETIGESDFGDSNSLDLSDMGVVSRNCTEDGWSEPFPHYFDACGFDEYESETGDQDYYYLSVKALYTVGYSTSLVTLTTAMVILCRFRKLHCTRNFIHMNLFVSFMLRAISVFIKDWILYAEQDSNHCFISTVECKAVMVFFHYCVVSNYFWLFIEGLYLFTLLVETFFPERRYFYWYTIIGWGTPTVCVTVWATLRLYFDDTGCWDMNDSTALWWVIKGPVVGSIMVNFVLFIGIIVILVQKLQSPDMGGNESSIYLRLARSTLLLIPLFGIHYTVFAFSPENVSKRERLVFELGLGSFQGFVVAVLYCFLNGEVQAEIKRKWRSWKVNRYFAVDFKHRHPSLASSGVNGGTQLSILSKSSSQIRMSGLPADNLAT
The test is described as follows: cAMP stimulation in CHO cells expressing PAC1. It counts as cell-based. The following applies: for Emax: CHO. On the procedure: Briefly, human PAC1, VPAC1, and VPAC2 receptors expressed in CHO cells were used for all experiments. Cells were grown in 50:50 DMEM-F12 medium with 10% heat-inactivated fetal bovine serum, 1X penicillin-streptomycin supplement, and 500 μg/ml G418 (neomycin) to maintain selection (all from ThermoFisher) at 37°C with 5% CO2 atmosphere. For the cAMP assay, cells were seeded at 20,000 cells/well in a 96 well plate, recovered overnight, then serum starved for 4 h. The cells were then incubated with 500 μM IBMX for 20 min, followed by agonist concentration curves in 500 μM IBMX media for 10 min. The reaction was terminated, boiled, then collected, followed by competition with 7 μg of bovine protein kinase A (Sigma-Aldrich) and ∼1 pmol of ^3H-cAMP (PerkinElmer). The assay was incubated at room temp for 1 h, then collected onto GF/B filter plates and the data read using a MicroBeta2 scintillation counter (PerkinElmer).

The target of a further test is T2, human VPAC1 receptor (Homo sapiens, UniProt P32241).
T2 construct: expressed in transfected cells; host or cells: CHO cells (G418 selection)
T2 sequence (P32241 31-457): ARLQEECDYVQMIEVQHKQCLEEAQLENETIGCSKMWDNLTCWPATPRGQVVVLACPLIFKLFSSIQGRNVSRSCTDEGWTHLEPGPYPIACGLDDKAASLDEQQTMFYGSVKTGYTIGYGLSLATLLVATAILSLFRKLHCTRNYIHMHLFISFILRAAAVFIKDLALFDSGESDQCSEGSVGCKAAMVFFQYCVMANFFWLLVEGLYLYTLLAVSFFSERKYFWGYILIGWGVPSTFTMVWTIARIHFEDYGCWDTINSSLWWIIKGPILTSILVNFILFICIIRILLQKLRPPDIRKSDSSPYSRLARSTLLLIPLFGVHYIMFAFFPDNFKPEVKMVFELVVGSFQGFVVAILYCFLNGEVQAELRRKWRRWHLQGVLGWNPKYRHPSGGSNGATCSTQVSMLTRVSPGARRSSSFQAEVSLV
Kind of test: cAMP stimulation in CHO cells expressing VPAC1. Type of test: cell-based.

Like-named read-outs stand apart in the source and are kept apart here.

For PACAP6–38 [reference compound], the “Antagonism of PAC1” value at human PAC1 receptor (cAMP assay in CHO cells) is listed as “unable to demonstrate antagonism”.
`CCC[C@H](NC(=O)[C@H](CCC(N)=O)NC(=O)[C@H](CCCCN)NC(=O)[C@H](CCCNC(=N)N)NC(=O)[C@H](Cc1ccc(O)cc1)NC(=O)[C@H](CCCNC(=N)N)NC(=O)[C@H](CO)NC(=O)[C@H](Cc1ccc(O)cc1)NC(=O)[C@H](CO)NC(=O)[C@H](CC(=O)O)NC(=O)[C@@H](NC(=O)[C@H](Cc1ccccc1)NC(=O)[C@@H](CCC)NC(=O)CNC(=O)[C@H](CC(=O)O)NC(=O)[C@@H](CO)NC(=O)[C@@H](N)Cc1c[nH]cn1)[C@@H](C)O)C(=O)N[C@@H](C)C(=O)N[C@H](C(=O)N[C@@H](CCCCN)C(=O)N[C@@H](CCCCN)C(=O)N[C@@H](Cc1ccc(O)cc1)C(=O)N[C@@H](CC(C)C)C(=O)N[C@@H](C)C(=O)N[C@@H](C)C(=O)N[C@H](C(=O)N[C@@H](CC(C)C)C(=O)N[C@@H](CO[C@@H]1O[C@H](CO)[C@@H](O)[C@H](O)[C@H]1O)C(N)=O)C(C)C)C(C)C` [CRA3020]: the results for the Emax at human PAC1 receptor and on human VPAC1 receptor (CHO; read-out: VPAC1 Emax) were 97% and 78%, respectively.
For the compound `CCC[C@H](NC(=O)[C@H](CCC(N)=O)NC(=O)[C@H](CCCCN)NC(=O)[C@H](CCCNC(=N)N)NC(=O)[C@H](Cc1ccc(O)cc1)NC(=O)[C@H](CCCNC(=N)N)NC(=O)[C@H](CO)NC(=O)[C@H](Cc1ccc(O)cc1)NC(=O)[C@H](CO)NC(=O)[C@H](CC(=O)O)NC(=O)[C@H](C)NC(=O)[C@H](Cc1ccccc1)NC(=O)[C@@H](NC(=O)CNC(=O)[C@H](CC(=O)O)NC(=O)[C@@H](CO)NC(=O)[C@@H](N)Cc1c[nH]cn1)[C@@H](C)CC)C(=O)N[C@@H](C)C(=O)N[C@H](C(=O)N[C@@H](CCCCN)C(=O)N[C@@H](CCCCN)C(=O)N[C@@H](Cc1ccc(O)cc1)C(=O)N[C@@H](CC(C)C)C(=O)N[C@@H](C)C(=O)N[C@@H](C)C(=O)N[C@@H](CO[C@@H]1O[C@H](CO)[C@@H](O)[C@H](O)[C@H]1O)C(=O)N[C@@H](CC(C)C)C(N)=O)C(C)C` [CRA3005], the maximal response (Emax) – broadly, the maximal effect, on the per cent scale that the assay sets – at human VPAC1 receptor (CHO; read-out: VPAC1 Emax) came to 78%. In addition, the EC50 (commonly the midpoint of the concentration-response curve) on human VPAC1 receptor (read-out: VPAC1 EC50) was found to be 1620 nM.
With `CCC[C@H](NC(=O)[C@H](CCC(N)=O)NC(=O)[C@H](CCCCN)NC(=O)[C@H](CCCNC(=N)N)NC(=O)[C@H](Cc1ccc(O)cc1)NC(=O)[C@H](CCCNC(=N)N)NC(=O)[C@H](CO)NC(=O)[C@H](Cc1ccc(O)cc1)NC(=O)[C@H](CO)NC(=O)[C@H](CC(=O)O)NC(=O)[C@@H](NC(=O)[C@H](Cc1ccccc1)NC(=O)[C@@H](NC(=O)CCCNC(=O)[C@H](CC(=O)O)NC(=O)[C@@H](CO)NC(=O)[C@@H](N)Cc1c[nH]cn1)[C@@H](C)CC)[C@@H](C)O)C(=O)N[C@@H](C)C(=O)N[C@H](C(=O)N[C@@H](CCCCN)C(=O)N[C@@H](CCCCN)C(=O)N[C@@H](Cc1ccc(O)cc1)C(=O)N[C@@H](CC(C)C)C(=O)N[C@@H](C)C(=O)N[C@@H](C)C(=O)N[C@H](C(=O)N[C@@H](CC(C)C)C(=O)N[C@@H](CO[C@@H]1O[C@H](CO)[C@@H](O)[C@H](O)[C@H]1O)C(N)=O)C(C)C)C(C)C` [CRA3006], the Emax on human PAC1 receptor was determined as 78%; on human VPAC1 receptor (CHO; read-out: VPAC1 Emax), 103%.
Regarding `CC[C@H](C)[C@H](NC(=O)CNC(=O)[C@H](CC(=O)O)NC(=O)[C@H](CO)NC(=O)[C@@H](N)Cc1c[nH]cn1)C(=O)N[C@@H](Cc1ccccc1)C(=O)N[C@H](C(=O)N[C@@H](CC(=O)O)C(=O)N[C@@H](CO)C(=O)N[C@@H](Cc1ccc(O)cc1)C(=O)N[C@@H](CO)C(=O)N[C@@H](CCCNC(=N)N)C(=O)N[C@@H](Cc1ccc(O)cc1)C(=O)N[C@@H](CCCNC(=N)N)C(=O)N[C@@H](CCCCN)C(=O)N[C@@H](CCC(N)=O)C(=O)N[C@@H](CC(C)C)C(=O)N[C@@H](C)C(=O)N[C@H](C(=O)N[C@@H](CCCCN)C(=O)N[C@@H](CCCCN)C(=O)N[C@@H](Cc1ccc(O)cc1)C(=O)N[C@@H](CC(C)C)C(=O)N[C@@H](C)C(=O)N[C@@H](C)C(=O)N[C@H](C(=O)N[C@@H](CC(C)C)C(=O)N[C@@H](CO[C@@H]1O[C@H](CO)[C@@H](O[C@@H]2O[C@H](CO)[C@H](O)[C@H](O)[C@H]2O)[C@H](O)[C@H]1O)C(N)=O)C(C)C)C(C)C)[C@@H](C)O` [Compound 2LS80Lact], the Emax on human PAC1 receptor amounted to 144 ± 20.7%.
Regarding `CCC[C@H](NC(=O)[C@H](CCC(N)=O)NC(=O)[C@H](CCCCN)NC(=O)[C@H](CCCNC(=N)N)NC(=O)[C@H](Cc1ccc(O)cc1)NC(=O)[C@H](CCCNC(=N)N)NC(=O)[C@H](CO)NC(=O)[C@H](Cc1ccc(O)cc1)NC(=O)[C@H](CO)NC(=O)[C@H](CC(=O)O)NC(=O)[C@H](C)NC(=O)[C@H](Cc1ccccc1)NC(=O)[C@@H](NC(=O)CNC(=O)[C@H](CC(=O)O)NC(=O)[C@@H](CO)NC(=O)[C@@H](N)Cc1c[nH]cn1)[C@@H](C)CC)C(=O)N[C@@H](C)C(=O)N[C@H](C(=O)N[C@@H](CCCCN)C(=O)N[C@@H](CCCCN)C(=O)N[C@@H](Cc1ccc(O)cc1)C(=O)N[C@@H](CC(C)C)C(=O)N[C@@H](C)C(=O)N[C@@H](C)C(=O)N[C@H](C(=O)N[C@@H](CO[C@@H]1O[C@H](CO)[C@@H](O)[C@H](O)[C@H]1O)C(N)=O)C(C)C)C(C)C` [CRA3004], a half-maximal response at human VPAC1 receptor (EC50) required 1370 nM. Moreover, the maximum response (Emax) on human VPAC1 receptor (CHO, read-out: VPAC1 Emax) was 85%.
At human PAC1 receptor, `CC[C@H](C)[C@H](NC(=O)CNC(=O)[C@H](CC(=O)O)NC(=O)[C@H](CO)NC(=O)[C@@H](N)Cc1c[nH]cn1)C(=O)N[C@@H](Cc1ccccc1)C(=O)N[C@H](C(=O)N[C@@H](CC(=O)O)C(=O)N[C@@H](CO)C(=O)N[C@@H](Cc1ccc(O)cc1)C(=O)N[C@@H](CO)C(=O)N[C@@H](CCCNC(=N)N)C(=O)N[C@@H](Cc1ccc(O)cc1)C(=O)N[C@@H](CCCNC(=N)N)C(=O)N[C@@H](CCCCN)C(=O)N[C@@H](CCC(N)=O)C(=O)N[C@@H](CC(C)C)C(=O)N[C@@H](C)C(=O)N[C@H](C(=O)N[C@@H](CCCCN)C(=O)N[C@@H](CCCCN)C(=O)N[C@@H](Cc1ccc(O)cc1)C(=O)N[C@@H](CC(C)C)C(=O)N[C@@H](C)C(=O)N[C@@H](C)C(=O)N[C@H](C(=O)N[C@@H](CC(C)C)C(N)=O)C(C)C)C(C)C)[C@@H](C)O` [2LS72–2] displayed an EC50 of 90.7 nM and an Emax of 74.3 ± 9.7%.
On human PAC1 receptor, `CC[C@H](C)[C@H](NC(=O)CNC(=O)[C@H](CC(=O)O)NC(=O)[C@@H](CO)NC(=O)[C@@H](N)Cc1c[nH]cn1)C(=O)N[C@@H](Cc1ccccc1)C(=O)N[C@H](C(=O)N[C@@H](CC(=O)O)C(=O)N[C@@H](CO)C(=O)N[C@@H](Cc1ccc(O)cc1)C(=O)N[C@@H](CO)C(=O)N[C@@H](CCCNC(=N)N)C(=O)N[C@@H](Cc1ccc(O)cc1)C(=O)N[C@@H](CCCNC(=N)N)C(=O)N[C@@H](CCCCN)C(=O)N[C@@H](CCC(N)=O)C(=O)N[C@@H](CC(C)C)C(=O)N[C@@H](C)C(=O)N[C@H](C(=O)N[C@@H](CCCCN)C(=O)N[C@@H](CCCCN)C(=O)N[C@@H](Cc1ccc(O)cc1)C(=O)N[C@@H](CC(C)C)C(=O)N[C@@H](C)C(=O)N[C@@H](C)C(=O)N[C@H](C(=O)N[C@@H](CC(C)C)C(N)=O)C(C)C)C(C)C)[C@@H](C)O` [2LS72–3] yielded an EC50 of 48.6 ± 32 nM and an Emax of 95.3 ± 8.1%.

The values above are taken from publication PMC8887546, “Design and Synthesis of Brain Penetrant Glycopeptide Analogues of PACAP With Neuroprotective Potential for Traumatic Brain Injury and Parkinsonism” (Frontiers in drug discovery, 2022).
